Structures can show the parent of a compound that is named as a salt.
How the values were obtained:
[1] = molecular target: T1, Notch1 (Homo sapiens, UniProt P46531); test: Notch1 Reporter Assay (CSL-responsive luciferase, doxycycline-induced Notch-ICD in 293A cells); type: cell-based; details: 25 ng/mL Dox, 24 h, luciferase normalized to cell viability
T1 construct: pLV[Tet]-Puro-TRE3G>Notch1-ICD; expressed in transfected cells; host or cells: 293A cells
Description: 293A cells expressing 1) pCMV-Tet-On 3G, 2) pLV[Tet]-Puro-TRE3G>Notch1-ICD, 3) pLV[Tet]-Puro-TRE3G>Notch2-ICD, 4) pLV[Tet]-Puro-TRE3G>Notch3-ICD, and 5) pCSL-RElement-Luc were used. When Doxycycline is added, the Tet-ON gene activates expression of hNotch1ICD, which together with endogenous NTC components binds to CSL responsive elements (pCSL-RElement-Luc) and expresses luciferase. 1×10^4 cells are plated in 100 μL (96-well format). 24 h later, compounds (10 mM stock in DMSO) are diluted in DMSO to 200×, then added (5 ul into 1 mL) to cell culture media containing 50 ng/mL Dox. This is then added 1:1 to cells. Final DMSO=0.25%, Dox=25 ng/mL. After 24 h, media is discarded, and cells are lysed in passive lysis buffer (Promega). Cells are rocked at room temperature for 15 min and then lysate is divided for luciferase assay (Luciferase Assay System, Promega) and cell viability (CellTiter Glo 2.0, Promega). Raw luciferase is normalized to cell viability, and then scaled to DMSO wells. Results are analyzed and IC50's are determined in GraphPad by nonlinear regression curve fitting (4 parameter) of dose response curves.

[2] = test system: OE33 Esophageal Adenocarcinoma cell line; test: OE33 Colony Formation Assay; type: cell-based; details: Homo sapiens, 200 cells/well, compound every 48 hours for 7 days, CellTiter-Glo
Description: OE33 Colony Formation Assay:
The OE33 Esophageal Adenocarcinoma cell line was cultured and plated into 96-well tissue culture plates under sparse conditions (200 cells/well). Test compounds were serially diluted in DMSO and then into culture media (final DMSO concentration=0.1%). Compound/media was then added to cells every 48 hours for a total of 7 days. Clonogenic growth was assessed using the CellTiter-Glo reagent, according to manufacturer (Promega) specifications. Percent inhibition was calculated as the percent of luminescence normalized to control (0.1% DMSO) wells. Nonlinear regression curve fitting was performed using GraphPad Prism software to determine EC50's.

T1 sequence (P46531 1754-2555 limits assumed): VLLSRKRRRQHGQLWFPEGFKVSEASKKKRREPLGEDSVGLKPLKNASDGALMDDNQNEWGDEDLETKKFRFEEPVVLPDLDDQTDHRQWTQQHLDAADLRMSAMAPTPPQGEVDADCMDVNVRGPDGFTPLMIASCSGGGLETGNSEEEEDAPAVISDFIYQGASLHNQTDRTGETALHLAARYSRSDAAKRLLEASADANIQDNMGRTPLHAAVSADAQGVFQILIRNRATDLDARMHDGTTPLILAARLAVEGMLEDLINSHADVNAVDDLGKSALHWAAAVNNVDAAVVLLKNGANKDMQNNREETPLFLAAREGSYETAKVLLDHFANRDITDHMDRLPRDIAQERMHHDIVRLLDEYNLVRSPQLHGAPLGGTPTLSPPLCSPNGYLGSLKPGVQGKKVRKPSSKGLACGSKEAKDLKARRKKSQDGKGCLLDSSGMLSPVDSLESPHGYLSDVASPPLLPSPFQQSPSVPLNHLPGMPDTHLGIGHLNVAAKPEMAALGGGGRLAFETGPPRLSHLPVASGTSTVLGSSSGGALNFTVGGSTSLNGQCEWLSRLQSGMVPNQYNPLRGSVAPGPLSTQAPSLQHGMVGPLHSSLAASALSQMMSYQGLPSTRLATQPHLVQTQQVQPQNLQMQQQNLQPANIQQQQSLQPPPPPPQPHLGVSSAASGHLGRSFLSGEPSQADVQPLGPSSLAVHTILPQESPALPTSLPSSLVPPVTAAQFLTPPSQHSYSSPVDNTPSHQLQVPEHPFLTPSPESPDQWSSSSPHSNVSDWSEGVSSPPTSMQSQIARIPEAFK

Structure (SMILES)	IC50 [1] [µM]	EC50 [2] [µM]
COc1cc(-c2cc(C(F)(F)F)cc3c2n(C)c(=O)n3CC(=O)Nc2cccc(Cl)c2)cc(F)c1OCc1nnc[nH]1 [SSTN-490, 2-(4-(4-((4H-1,2,4-triazol-3-yl)methoxy)-3-fluoro-5-methoxyphenyl)-3-methyl-2-oxo-6-(trifluoromethyl)-2,3-dihydro-1H-benzo[d]imidazol-1-yl)-N-(3-chlorophenyl)acetamide hydrochloride]	5.5	1.7
Cn1c(=O)n(CC(=O)Nc2ccc(F)cc2)c2cc(C(F)(F)F)cc(-c3cc(Cl)c(OCc4nnc[nH]4)c(Cl)c3)c21 [SSTN-599, 2-(4-(4-((4H-1,2,4-triazol-3-yl)methoxy)-3,5-dichlorophenyl)-3-methyl-2-oxo-6-(trifluoromethyl)-2,3-dihydro-1H-benzo[d]imidazol-1-yl)-N-(4-fluorophenyl)acetamide]	13.9	
COc1cc(-c2cc(C(F)(F)F)cc3c2n(C)c(=O)n3CC(=O)N(c2ccc(F)cc2)C(C)C)cc(F)c1OCc1nnc[nH]1 [SSTN-542, 2-(4-(4-((4H-1,2,4-triazol-3-yl)methoxy)-3-fluoro-5-methoxyphenyl)-3-methyl-2-oxo-6-(trifluoromethyl)-2,3-dihydro-1H-benzo[d]imidazol-1-yl)-N-(4-fluorophenyl)-N-isopropylacetamide]	3.8	1.7
COc1cc(-c2cc(C(F)(F)F)cc3c2n(C)c(=O)n3CC(=O)N(c2ccc(F)cc2)C2CC2)cc(F)c1OCc1nnc[nH]1 [SSTN-543, 2-(4-(4-((4H-1,2,4-triazol-3-yl)methoxy)-3-fluoro-5-methoxyphenyl)-3-methyl-2-oxo-6-(trifluoromethyl)-2,3-dihydro-1H-benzo[d]imidazol-1-yl)-N-cyclopropyl-N-(4-fluorophenyl)acetamide]	4.7	2.9
COc1cc(-c2cc(C(F)(F)F)cc3c2n(C)c(=O)n3CC(=O)Nc2cccc(C3CC3)c2)cc(F)c1OCc1nnc[nH]1 [SSTN-547, 2-(4-(4-((4H-1,2,4-triazol-3-yl)methoxy)-3-fluoro-5-methoxyphenyl)-3-methyl-2-oxo-6-(trifluoromethyl)-2,3-dihydro-1H-benzo[d]imidazol-1-yl)-N-(3-cyclopropylphenyl)acetamide]	5.9	1.7
COc1cc(-c2cc(C(F)(F)F)cc3c2n(C)c(=O)n3CC(=O)Nc2ccc(F)cc2F)cc(F)c1OCc1nnc[nH]1 [SSTN-494, 2-(4-(4-((4H-1,2,4-triazol-3-yl)methoxy)-3-fluoro-5-methoxyphenyl)-3-methyl-2-oxo-6-(trifluoromethyl)-2,3-dihydro-1H-benzo[d]imidazol-1-yl)-N-(2,4-difluorophenyl)acetamide hydrochloride]	12.1	7.1
COc1cc(-c2cc(C(F)(F)F)cc3c2n(C)c(=O)n3CC(=O)Nc2ccn(C)n2)cc(F)c1OCc1nnc[nH]1 [SSTN-509, 2-(4-(4-((4H-1,2,4-triazol-3-yl)methoxy)-3-fluoro-5-methoxyphenyl)-3-methyl-2-oxo-6-(trifluoromethyl)-2,3-dihydro-1H-benzo[d]imidazol-1-yl)-N-(1-methyl-1H-pyrazol-3-yl)acetamide hydrochloride]	16.1	
COc1ccc(NC(=O)Cn2c(=O)n(C)c3c(-c4cc(F)c(OCc5nnc[nH]5)c(OC)c4)cc(C(F)(F)F)cc32)cn1 [SSTN-613, 2-(4-(4-((4H-1,2,4-triazol-3-yl)methoxy)-3-fluoro-5-methoxyphenyl)-3-methyl-2-oxo-6-(trifluoromethyl)-2,3-dihydro-1H-benzo[d]imidazol-1-yl)-N-(6-methoxypyridin-3-yl)acetamide]	9.2	
COc1cc(-c2cc(F)cc3c2n(C)c(=O)n3CC(=O)N(C)c2ccc(F)cc2)cc(F)c1OCc1nnc[nH]1 [compound 425, 2-(4-(4-((4H-1,2,4-triazol-3-yl)methoxy)-3-fluoro-5-methoxyphenyl)-6-fluoro-3-methyl-2-oxo-2,3-dihydro-1H-benzo[d]imidazol-1-yl)-N-(4-fluorophenyl)-N-methylacetamide hydrochloride]	33.5	
Cn1c(=O)n(CC(=O)N(Cc2nnc[nH]2)c2ccc(F)cc2)c2cc(C(F)(F)F)cc(-c3ccc(OCc4nnc[nH]4)c(F)c3)c21 [SSTN-592, 2-(4-(4-((4H-1,2,4-triazol-3-yl)methoxy)-3-fluorophenyl)-3-methyl-2-oxo-6-(trifluoromethyl)-2,3-dihydro-1H-benzo[d]imidazol-1-yl)-N-((4H-1,2,4-triazol-3-yl)methyl)-N-(4-fluorophenyl)acetamide]	14.8	
Cn1c(=O)n(CC(=O)Nc2ccc(F)cc2)c2cc(C(F)(F)F)cc(-c3ccc(OCc4nnc[nH]4)c(F)c3)c21 [SSTN-597, 2-(4-(4-((4H-1,2,4-triazol-3-yl)methoxy)-3-fluorophenyl)-3-methyl-2-oxo-6-(trifluoromethyl)-2,3-dihydro-1H-benzo[d]imidazol-1-yl)-N-(4-fluorophenyl)acetamide]	8.1	
COc1cc(-c2cc(F)cc3c2n(C)c(=O)n3CC(=O)N(C)c2ccc(Cl)cc2)cc(F)c1OCc1nc[nH]n1 [compound 384, 2-(4-(4-((1H-1,2,4-triazol-3-yl)methoxy)-3-fluoro-5-methoxyphenyl)-6-fluoro-3-methyl-2-oxo-2,3-dihydro-1H-benzo[d]imidazol-1-yl)-N-(4-chlorophenyl)-N-methylacetamide hydrochloride]	14.2	
COc1cc(-c2cc(C(F)(F)F)cc3c2n(C)c(=O)n3CC(=O)N2CCN(C)CC2)cc(F)c1OCc1nnc[nH]1 [SSTN-544, 4-(4-((4H-1,2,4-triazol-3-yl)methoxy)-3-fluoro-5-methoxyphenyl)-3-methyl-1-(2-(4-methylpiperazin-1-yl)-2-oxoethyl)-6-(trifluoromethyl)-1,3-dihydro-2H-benzo[d]imidazol-2-one]	51.1	
COc1cc(-c2cc(C(F)(F)F)cc3c2n(C)c(=O)n3CC(=O)Nc2cccc(C#N)c2)cc(F)c1OCc1nnc[nH]1 [SSTN-545, 2-(4-(4-((4H-1,2,4-triazol-3-yl)methoxy)-3-fluoro-5-methoxyphenyl)-3-methyl-2-oxo-6-(trifluoromethyl)-2,3-dihydro-1H-benzo[d]imidazol-1-yl)-N-(3-cyanophenyl)acetamide]	5.8	
COc1cc(-c2cc(C(F)(F)F)cc3c2n(C)c(=O)n3CC(=O)Nc2cncc(C(F)(F)F)c2)cc(F)c1OCc1nnc[nH]1 [SSTN-614, 2-(4-(4-((4H-1,2,4-triazol-3-yl)methoxy)-3-fluoro-5-methoxyphenyl)-3-methyl-2-oxo-6-(trifluoromethyl)-2,3-dihydro-1H-benzo[d]imidazol-1-yl)-N-(5-(trifluoromethyl)pyridin-3-yl)acetamide]	3.4	
COc1cc(-c2cc(C(F)(F)F)cc3c2n(C)c(=O)n3CC(=O)Nc2cccc(CN3CCOCC3)c2)cc(F)c1OCc1nnc[nH]1 [SSTN-575, 2-(4-(4-((4H-1,2,4-triazol-3-yl)methoxy)-3-fluoro-5-methoxyphenyl)-3-methyl-2-oxo-6-(trifluoromethyl)-2,3-dihydro-1H-benzo[d]imidazol-1-yl)-N-(3-(morpholinomethyl)phenyl)acetamide]	12.5	
Cn1c(=O)n(CC(=O)N(Cc2nnc[nH]2)c2ccc(F)cc2)c2cc(C(F)(F)F)cc(-c3cc(Cl)c(OCc4nnc[nH]4)c(Cl)c3)c21 [SSTN-594, 2-(4-(4-((4H-1,2,4-triazol-3-yl)methoxy)-3,5-dichlorophenyl)-3-methyl-2-oxo-6-(trifluoromethyl)-2,3-dihydro-1H-benzo[d]imidazol-1-yl)-N-((4H-1,2,4-triazol-3-yl)methyl)-N-(4-fluorophenyl)acetamide]	4.5	
COc1cc(-c2cc(C)cc3c2n(C)c(=O)n3CC(=O)Nc2ccc(F)cc2)cc(F)c1OCc1nnc[nH]1 [SSTN-606, 2-(4-(4-((4H-1,2,4-triazol-3-yl)methoxy)-3-fluoro-5-methoxyphenyl)-3,6-dimethyl-2-oxo-2,3-dihydro-1H-benzo[d]imidazol-1-yl)-N-(4-fluorophenyl)acetamide hydrochloride salt]	15.3	
COc1cncc(NC(=O)Cn2c(=O)n(C)c3c(-c4cc(F)c(OCc5nnc[nH]5)c(OC)c4)cc(C(F)(F)F)cc32)c1 [SSTN-611, 2-(4-(4-((4H-1,2,4-triazol-3-yl)methoxy)-3-fluoro-5-methoxyphenyl)-3-methyl-2-oxo-6-(trifluoromethyl)-2,3-dihydro-1H-benzo[d]imidazol-1-yl)-N-(5-methoxypyridin-3-yl)acetamide]	20.9	
COc1cc(-c2cc(C(F)(F)F)cc3c2n(C)c(=O)n3CC(=O)Nc2cccc(S(C)(=O)=O)c2)cc(F)c1OCc1nnc[nH]1 [SSTN-501, 2-(4-(4-((4H-1,2,4-triazol-3-yl)methoxy)-3-fluoro-5-methoxyphenyl)-3-methyl-2-oxo-6-(trifluoromethyl)-2,3-dihydro-1H-benzo[d]imidazol-1-yl)-N-(3-(methylsulfonyl)phenyl)acetamide hydrochloride]	13	

Reference: US20230183215A1, “Notch Inhibitors and Uses Thereof” (StemSynergy Therapeutics, Inc., priority 2020, published 2023)
